Like-named read-outs stand apart in the source and are kept apart here.
Key:
[1] = system: HBeAg in HBV-infected HepG2-NTCP cells; assay: microbe, parasite or virus in culture; type: cell-based, Hepatitis B virus genotype D (AD38); details: read-out: HBeAg, EC50
Experimental: (§1) Production of wild-type HBV virions from HepAD38 cells was performed as previously described. HepG2-NTCP cells were bulk plated on collagen coated flasks at a density of 6x10^6 cells/ T175 flask. Following a 3-day incubation at 37°C, cells were infected with genotype D (AD38) virus at […] in the presence of 4% PEG8000 and 2.5% DMSO. HepG2-NTCP cells were washed 3 times with OPTI-MEM and maintained in Dulbecco’s modified Eagle’s medium (DMEM) supplemented with 2% FBS and 2.5% DMSO for the following 4 days. HBV-infected HepG2-NTCP cells were trypsinized, resuspended in DMEM supplemented with 2% FBS and 1% DMSO, and seeded onto serially diluted small molecule inhibitors at a 0.5% final DMSO concentration (S1 Table) in 384-well collagen coated plates at a density of 20,000 cells/well for 3 additional days.
(§2) Cell culture supernatant (3 μL) was transferred to two 1536-well plates and HBsAg and HBeAg levels subsequently measured by HTRF (Cisbio). HBsAg was measured using Terbium conjugated (XTL-17) and D2 receptor conjugated (XTL19) anti-HBsAg antibodies, while HBeAg was measured using Terbium conjugated (GWB-F19420, Genway Biotech) and D2 receptor conjugated (GWB-24DEF, Genway Biotech) anti-HBeAg antibodies. […] was measured using an Envision plate reader at emissions of 665 nm and 615 nm. The ratio of 665/615 was used to plot compound dose response curves and EC50 values were calculated from the fit of the dose−response curves to a four-parameter equation.
(§3) (A) Schematic overview of the pathways involved in lipid biosynthesis, such as DNL, TG esterification and cholesterol biosynthesis. […] (B-D) HepG2-NTCP cells infected with HBV for three days were treated with selected compounds in an eight-point dose response. After three days of treatment, extracellular HBsAg and HBeAg levels as well as cell viability were measured.

[2] = system: HBsAg secretion in HBV-infected HepG2-NTCP cells; assay: microbe, parasite or virus in culture; type: cell-based, Hepatitis B virus genotype D (AD38); details: for EC50: read-out: HBsAg, EC50; for inhibition of HBsAg secretion: maximal (up to)
Experimental: as §1, §2, §3

[3] = system: HBV-infected HepG2-NTCP cells; assay: Cell viability by CellTiter Glo; type: cell-based, human; details: three days of treatment
Experimental: as §1
(§4) Cells were analyzed for cell viability by addition of CellTiter Glo (Promega) to the assay plates and analyzed using an Envision plate reader (Perkin Elmer). CC50 values were calculated from the fit of the dose−response curves to a four-parameter equation. All CC50 values represent geometric mean values of a minimum of four determinations.
as §3

[4] = Cell viability by CellTiter Glo; type: cell-based, human; details: human; HBV-infected HepG2-NTCP cells, three days of treatment
Experimental: as §1, §4, §3

[5] = system: ACC1 and ACC2; set-up: method as in PMID 29705265, PMID 30059671; details: cited from earlier work
[6] = HBV-infected HepG2-NTCP cells, three days of treatment, extracellular

Row | SMILES | EC50 [1, 6] [µM] | EC50 [2, 6] [µM] | CC50 [3] [µM] | EC50 ([1]; Hepatitis B virus, 72 h) [µM] | EC50 ([2]; Hepatitis B virus, 72 h) [µM] | CC50 at 3 days [4] [µM] | further results
1 | COC(=O)c1cc(Cl)c(O)c(S(=O)(=O)Nc2cc(-c3ccccc3)c(F)cc2F)c1 [ACLY Inhibitor, methyl 3-chloro-5-(N-(4,6-difluoro-[1,1'-biphenyl]-3-yl)sulfamoyl)-4-hydroxybenzoate] | > 10 | > 10 | > 10 | – | – | – | –
2 | CC1=NN(c2ccc(OC(F)F)c(-c3cccnc3)c2)C(=O)C1C(=O)Nc1cccc(C(C)(F)F)c1 (stereo not shown) [ACSS2 Inhibitor, N-(3-(1,1-difluoroethyl)phenyl)-1-(4-(difluoromethoxy)-3-(pyridin-3-yl)phenyl)-3-methyl-5-oxo-4,5-dihydro-1H-pyrazole-4-carboxamide] | > 10 | > 10 | > 10 | – | – | – | –
3 | C=C(C)[C@@H]1CC[C@]2(CO)CC[C@]3(C)[C@H](CC[C@@H]4[C@@]5(C)CC[C@H](O)C(C)(C)[C@@H]5CC[C@]43C)[C@@H]12 [Betulin, (1R,3aS,5aR,5bR,7aR,9S,11aR,11bR,13aR,13bR)-3a-(hydroxymethyl)-5a,5b,8,8,11a-pentamethyl-1-(prop-1-en-2-yl)icosahydro-1H-cyclopenta[a]chrysen-9-ol] | – | – | – | > 10 | > 10 | > 10 | –
4 | CC(C)N(C)c1nc2cc(C(=O)O)ccc2nc1-c1ccc(F)cc1 [BioE-115, 2-(4-fluorophenyl)-3-(isopropyl(methyl)amino)quinoxaline-6-carboxylic acid] | > 10 | > 10 | > 10 | – | – | – | –
5 | O=C(O)c1ccccc1NS(=O)(=O)c1ccc(Cl)c([N+](=O)[O-])c1 [CPT2 Inhibitor, 2-((4-chloro-3-nitrophenyl)sulfonamido)benzoic acid] | > 10 | > 10 | > 10 | – | – | – | –
6 | Nc1ncnc2c1C(=O)N(c1ccc([C@H]3CC[C@H](CC(=O)O)CC3)cc1)CCO2 [DGAT1 Inhibitor, 2-((1r,4r)-4-(4-(4-amino-5-oxo-7,8-dihydropyrimido[5,4-f][1,4]oxazepin-6(5H)-yl)phenyl)cyclohexyl)acetic acid] | > 10 | > 10 | – | – | – | – | –
7 | CC1(NC(=O)c2ccc3c(-c4ccccc4Cl)cn(-c4ccc(F)cc4)c3c2)CCS(=O)(=O)C1 (stereo not shown) [DGAT2 Inhibitor, 3-(2-chlorophenyl)-1-(4-fluorophenyl)-N-(3-methyl-1,1-dioxidotetrahydrothiophen-3-yl)-1H-indole-6-carboxamide] | > 10 | > 10 | > 10 | – | – | – | –
8 | CCOC(=O)[C@@]1(CCCCCCOc2ccc(Cl)cc2)CO1 [Etomoxir, ethyl (R)-2-(6-(4-chlorophenoxy)hexyl)oxirane-2-carboxylate] | – | – | – | > 10 | > 10 | > 10 | –
9 | Cc1cc(C)c(-c2[nH]c(C3CC3)nc2C)cc1C(=O)N1CC(F)(c2ccc(C#N)cc2)C1 [FASN inhibitor, 4-(1-(5-(2-cyclopropyl-4-methyl-1H-imidazol-5-yl)-2,4-dimethylbenzoyl)-3-fluoroazetidin-3-yl)benzonitrile] | > 10 | 0.081 | > 10 | – | – | – | selectivity HBsAg versus HBeAg ([2]; HBV-infected HepG2-NTCP cells): selective for HBsAg; inhibition of HBsAg secretion ([2]; HBV-infected HepG2-NTCP cells): up to 80%
10 | COc1ccccc1[C@H](Cn1c(=O)n(C(C)(C)C(=O)O)c(=O)c2c(C)c(-c3ncco3)sc21)OC1CCOCC1 [FIR, Firsocostat] | – | – | – | – | – | – | liver fat reduction ([5]; observed clinically): ~ 30%; DNL inhibition ([5]; partial target inhibition observed clinically): ~ 70%
11 | CCCCCCCCc1ccc(CC[C@](N)(CO)COP(=O)(O)O)cc1 [FTY720 (S)-phosphate, (S)-2-amino-2-(hydroxymethyl)-4-(4-octylphenyl)butyl dihydrogen phosphate] | > 10 | > 10 | > 10 | – | – | – | –
12 | CCCCCCCCc1ccc(CCC(N)(CO)CO)cc1 [FTY720, 2-amino-2-(4-octylphenethyl)propane-1,3-diol] | – | – | – | > 10 | > 10 | > 10 | –
13 | CCCc1cc(-c2nc(-c3ccc(C)cc3)cs2)ccn1 [Fatostatin, 2-(2-propylpyridin-4-yl)-4-(p-tolyl)thiazole] | – | – | – | > 10 | > 10 | > 10 | –
14 | Cc1nn(C)c2nc(NNC(=O)Nc3cc(Cl)nc(Cl)c3)cc(C(C)C)c12 [JTE-013, N-(2,6-dichloropyridin-4-yl)-2-(4-isopropyl-1,3-dimethyl-1H-pyrazolo[3,4-b]pyridin-6-yl)hydrazine-1-carboxamide] | > 10 | 6.7 | > 10 | – | – | – | –
15 | C[C@H]1CCN1c1nc(N2C[C@@H]3[C@@H](CC(=O)O)[C@@H]3C2)cc(C(F)(F)F)n1 [KHK Inhibitor, 2-((1R,5S,6R)-3-(2-((S)-2-methylazetidin-1-yl)-6-(trifluoromethyl)pyrimidin-4-yl)-3-azabicyclo[3.1.0]hexan-6-yl)acetic acid] | > 10 | > 10 | – | – | – | – | –
16 | CCOC(=O)c1ccc(CN(Cc2ccc(-c3cccc(S(C)(=O)=O)c3)cc2)S(=O)(=O)c2c(C)cc(C)cc2C)o1 [LXR Inverse Agonist, ethyl 5-(((2,4,6-trimethyl-N-((3'-(methylsulfonyl)-[1,1'-biphenyl]-4-yl)methyl)phenyl)sulfonamido)methyl)furan-2-carboxylate] | > 10 | > 10 | > 10 | – | – | – | –
17 | O=C(O)C[C@H]1CC[C@H](c2ccc(-c3ccc(Nc4ccc(C(F)(F)F)nc4)cn3)cc2)CC1 [Pradagilast, 2-((1r,4r)-4-(4-(5-((6-(trifluoromethyl)pyridin-3-yl)amino)pyridin-2-yl)phenyl)cyclohexyl)acetic acid] | – | – | – | > 10 | > 10 | > 10 | –
18 | CCCCCCCCCCCCCCCCCCCC(=O)N[C@H]1CC[C@@]2(C)[C@@H](C1)C[C@@H](O)[C@@H]1[C@@H]2C[C@H](O)[C@]2(C)[C@@H]([C@H](C)CCC(=O)O)CC[C@@H]12 [SCD1 Inhibitor, (R)-4-((3S,5S,7R,8R,9S,10S,12S,13R,14S,17R)-7,12-dihydroxy-3-icosanamido-10,13-dimethylhexadecahydro-1H-cyclopenta[a]phenanthren-17-yl)pentanoic acid] | > 10 | > 10 | > 10 | – | – | – | –
19 | CCN(CC)Cc1ccc(C(=O)N(CCc2ccccc2OC)[C@@H]2CCNC2)cc1 [SKI-1/S1P inhibitor, (R)-4-((diethylamino)methyl)-N-(2-methoxyphenethyl)-N-(pyrrolidin-3-yl)benzamide] | > 10 | 0.79 | > 10 | – | – | – | selectivity HBsAg versus HBeAg ([2]; HBV-infected HepG2-NTCP cells): selective for HBsAg; inhibition of HBsAg secretion ([2]; HBV-infected HepG2-NTCP cells): up to 80%
20 | Oc1ccc(Nc2nc(-c3ccc(Cl)cc3)cs2)cc1 [SKI-II, 4-((4-(4-chlorophenyl)thiazol-2-yl)amino)phenol] | – | – | – | > 10 | 8.84 | > 10 | –

— paper PMC9352027, “Targeting lipid biosynthesis pathways for hepatitis B virus cure” (PLoS ONE, 2022)
